Measured values published in US7700109B2, “Biomolecule transduction motif Mph-1-BTM and the use thereof” (ForHumanTech. Co., Ltd., priority 2002, dated 2010).

Legend:
[1] = test system: HUVEC, HeLa, 293 and Jurkat cells; assay: Transduction of fusion protein across cell membrane, β-galactosidase staining on slides; assay type: cell-based; conditions: 0.5 μM, 30 min at 37° C., HeLa, 293, Jurkat cells
Protocol: HUVEC (ATCC:CRL-1730) (2×10^5), HeLa (ATCC:CCL-2) (2×10^5), and 293 (ATCC:CRL-1573) (2×10^5), which were incubated in 10% FBS (Fetal Bovine Serum) of DMEM, were respectively transferred to Lab-tek II chamber slides. Jurkat cells (ATCC:CRL-10915) (2×10^5) incubated in 10% EBS RPMI were transferred to poly-L-lysin coated slides. Each of the slides was treated with the purified 0.5 μM of Mph-1-β-galactosidase for 30 min at 37° C. in 5% CO2 incubator. And the supernatants were removed from the slides. The incubation mixtures were washed using ice-cold PBS four times and then were solidified with 2% formaldehyde solution for 10 min. After removing the solidified solutions, the mixtures were washed again using ice-cold PBS four times. Subsequently, the respective mixtures were treated with 700 μl of β-galactosidase staining solution (Roche. Colo.) for 45 min at 37° C. in 5% CO2 incubator. Following the staining, the mixtures were washed with ice-cold PBS four times after removing the supernatants. Next, the mixtures were mounted with 70% glycerol on the microscope slides.

Jurkat T cells = assay: Screening of candidate PTD-β-galactosidase fusion proteins for transduction; assay type: cell-based; conditions: fusion with β-galactosidase
From the text: Based on these two hypotheses and requisites, we searched the gene bank. With the factor that the conventional PTDs have lysines and arginines abundantly, we selected about 10,000 primary candidate genes. Among them, 500 genes were chosen by applying the requisites of signal peptide, and 100 genes of the 500 genes were confirmed as to have alanine and valine. Finally, 20 genes were selected by applying the factors required for the transcription factors, and then the transduction efficiencies were tested therefor. In addition, fusion proteins of each of these candidate PTDs and β-galactosidase were expressed and purified, and the functions of these proteins were detected using Jurkat T cells.

| Substance | transduction across the cell membranes (β-galactosidase staining) [1] | transduction ability (Jurkat T cells) |
| --- | --- | --- |
| β-gal: β-galactosidase reporter protein alone, without transduction peptide | not transduced at all |  |
| Mph-1-BTM: amino acid sequence 858 to 868 of Mph-1, a mouse transcription factor (SEQ ID NO:1) (YARVRRRGPRR; Biomolecule transduction motif) |  | unexpectedly significant transduction ability |
